{
  "source": "PubChem BioAssay AID2060493",
  "about": "(Molecular Pharmacology Branch, DTP, NCI, 2025);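 also: spheroids exposed to agents for 7 days before readout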;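 as to viability, T/C: percent viability relative to DMSO vehicle control wells taken as 100%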",
  "tested_on": "616215-338-R-J1-PDC tumor spheroids, viability",
  "test": "Anticancer human tumor 616215-338-R-J1-PDC patient-derived colon adenocarcinoma cell line growth inhibition [GQUAD]",
  "settings": "spheroids with HUVEC and MSC; for IC50: curve of first compound; for viability, T/C: stronger effect = lower value",
  "summary_of_the_method": "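Tumor cells were grown as complex spheroids with HUVEC endothelial cells and mesenchymal stem cells as stroma. G-quadruplex stabilizers were combined with targeted agents over half-log dilutions from near the clinical Cmax, or from 10 microM.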",
  "key": {"[1]": {"settings": "second compound 0.0316 µM, first compound 0.0316 µM"}, "[2]": {"settings": "second compound 0.0316 µM, first compound 0.1 µM"}, "[3]": {"settings": "second compound 0.0316 µM, first compound 0.316 µM"}, "[4]": {"settings": "second compound 0.0316 µM, first compound 1 µM"}, "[5]": {"settings": "second compound 0.0316 µM, first compound 3.16 µM"}, "[6]": {"settings": "second compound 0.0316 µM, first compound 10 µM"}, "[7]": {"settings": "second compound 0.1 µM, first compound 0.0316 µM"}, "[8]": {"settings": "second compound 0.1 µM, first compound 0.1 µM"}, "[9]": {"settings": "second compound 0.1 µM, first compound 0.316 µM"}, "[10]": {"settings": "second compound 0.1 µM, first compound 1 µM"}, "[11]": {"settings": "second compound 0.1 µM, first compound 3.16 µM"}, "[12]": {"settings": "second compound 0.1 µM, first compound 10 µM"}, "[13]": {"settings": "second compound 0.316 µM, first compound 0.0316 µM"}, "[14]": {"settings": "second compound 0.316 µM, first compound 0.1 µM"}, "[15]": {"settings": "second compound 0.316 µM, first compound 0.316 µM"}, "[16]": {"settings": "second compound 0.316 µM, first compound 1 µM"}, "[17]": {"settings": "second compound 0.316 µM, first compound 3.16 µM"}, "[18]": {"settings": "second compound 0.316 µM, first compound 10 µM"}, "[19]": {"settings": "second compound 1 µM, first compound 0.0316 µM"}, "[20]": {"settings": "second compound 1 µM, first compound 0.1 µM"}, "[21]": {"settings": "second compound 1 µM, first compound 0.316 µM"}, "[22]": {"settings": "second compound 1 µM, first compound 1 µM"}, "[23]": {"settings": "second compound 1 µM, first compound 3.16 µM"}, "[24]": {"settings": "second compound 1 µM, first compound 10 µM"}, "[25]": {"settings": "second compound 3.16 µM, first compound 0.0316 µM"}, "[26]": {"settings": "second compound 3.16 µM, first compound 0.1 µM"}, "[27]": {"settings": "second compound 3.16 µM, first compound 0.316 µM"}, "[28]": {"settings": "second compound 3.16 µM, first compound 1 µM"}, "[29]": {"settings": "second compound 3.16 µM, first compound 3.16 µM"}, "[30]": {"settings": "second compound 3.16 µM, first compound 10 µM"}, "[31]": {"settings": "second compound 10 µM, first compound 0.0316 µM"}, "[32]": {"settings": "second compound 10 µM, first compound 0.1 µM"}, "[33]": {"settings": "second compound 10 µM, first compound 0.316 µM"}, "[34]": {"settings": "second compound 10 µM, first compound 1 µM"}, "[35]": {"settings": "second compound 10 µM, first compound 3.16 µM"}, "[36]": {"settings": "second compound 10 µM, first compound 10 µM"}},
  "data": [
    {"smiles": "C#Cc1c(F)ccc2cc(O)cc(-c3ncc4c(N5CC6CCC(C5)N6)nc(OCC56CCCN5CC(F)C6)nc4c3F)c12", "note": "(centres undefined) + Cc1[nH]c2ccc(F)cc2c1-c1nc2c3cccnc3c3ncccc3c2[nH]1", "values": [
      {"measurement": "IC50", "setting": "second compound 0.0316 µM", "result": "> 10", "unit": "µM"},
      {"measurement": "IC50", "setting": "second compound 0.1 µM", "result": "> 10", "unit": "µM"},
      {"measurement": "IC50", "setting": "second compound 0.316 µM", "result": "> 10", "unit": "µM"},
      {"measurement": "IC50", "setting": "second compound 1 µM", "result": "> 10", "unit": "µM"},
      {"measurement": "IC50", "setting": "second compound 3.16 µM", "result": 8.11, "unit": "µM"},
      {"measurement": "IC50", "setting": "second compound 10 µM", "result": 6.03, "unit": "µM"},
      {"measurement": "viability, T/C", "setting": "[1]", "result": 104, "unit": "%"},
      {"measurement": "viability, T/C", "setting": "[2]", "result": 109, "unit": "%"},
      {"measurement": "viability, T/C", "setting": "[3]", "result": 103, "unit": "%"},
      {"measurement": "viability, T/C", "setting": "[4]", "result": 111, "unit": "%"},
      {"measurement": "viability, T/C", "setting": "[5]", "result": 97.4, "unit": "%"},
      {"measurement": "viability, T/C", "setting": "[6]", "result": 73.3, "unit": "%"},
      {"measurement": "viability, T/C", "setting": "[7]", "result": 107, "unit": "%"},
      {"measurement": "viability, T/C", "setting": "[8]", "result": 111, "unit": "%"},
      {"measurement": "viability, T/C", "setting": "[9]", "result": 126, "unit": "%"},
      {"measurement": "viability, T/C", "setting": "[10]", "result": 113, "unit": "%"},
      {"measurement": "viability, T/C", "setting": "[11]", "result": 96, "unit": "%"},
      {"measurement": "viability, T/C", "setting": "[12]", "result": 78.4, "unit": "%"},
      {"measurement": "viability, T/C", "setting": "[13]", "result": 113, "unit": "%"},
      {"measurement": "viability, T/C", "setting": "[14]", "result": 96.9, "unit": "%"},
      {"measurement": "viability, T/C", "setting": "[15]", "result": 124, "unit": "%"},
      {"measurement": "viability, T/C", "setting": "[16]", "result": 116, "unit": "%"},
      {"measurement": "viability, T/C", "setting": "[17]", "result": 106, "unit": "%"},
      {"measurement": "viability, T/C", "setting": "[18]", "result": 56.9, "unit": "%"},
      {"measurement": "viability, T/C", "setting": "[19]", "result": 105, "unit": "%"},
      {"measurement": "viability, T/C", "setting": "[20]", "result": 99.9, "unit": "%"},
      {"measurement": "viability, T/C", "setting": "[21]", "result": 97.9, "unit": "%"},
      {"measurement": "viability, T/C", "setting": "[22]", "result": 108, "unit": "%"},
      {"measurement": "viability, T/C", "setting": "[23]", "result": 83.8, "unit": "%"},
      {"measurement": "viability, T/C", "setting": "[24]", "result": 64.4, "unit": "%"},
      {"measurement": "viability, T/C", "setting": "[25]", "result": 102, "unit": "%"},
      {"measurement": "viability, T/C", "setting": "[26]", "result": 106, "unit": "%"},
      {"measurement": "viability, T/C", "setting": "[27]", "result": 116, "unit": "%"},
      {"measurement": "viability, T/C", "setting": "[28]", "result": 94.1, "unit": "%"},
      {"measurement": "viability, T/C", "setting": "[29]", "result": 82.6, "unit": "%"},
      {"measurement": "viability, T/C", "setting": "[30]", "result": 42.9, "unit": "%"},
      {"measurement": "viability, T/C", "setting": "[31]", "result": 97.2, "unit": "%"},
      {"measurement": "viability, T/C", "setting": "[32]", "result": 101, "unit": "%"},
      {"measurement": "viability, T/C", "setting": "[33]", "result": 110, "unit": "%"},
      {"measurement": "viability, T/C", "setting": "[34]", "result": 82.1, "unit": "%"},
      {"measurement": "viability, T/C", "setting": "[35]", "result": 60.8, "unit": "%"},
      {"measurement": "viability, T/C", "setting": "[36]", "result": 42.4, "unit": "%"}
    ]},
    {"smiles": "CCCS(=O)(=O)Nc1ccc(F)c(C(=O)c2c[nH]c3ncc(-c4ccc(Cl)cc4)cc23)c1F", "note": "+ CN(C)c1ccc(Nc2c3ccc(NC(=O)CCN4CCCC4)cc3nc3cc(NC(=O)CCN4CCCC4)ccc23)cc1", "values": [
      {"measurement": "IC50", "setting": "second compound 0.0316 µM", "result": 5.56, "unit": "µM"},
      {"measurement": "IC50", "setting": "second compound 0.1 µM", "result": 5.39, "unit": "µM"},
      {"measurement": "IC50", "setting": "second compound 0.316 µM", "result": 5.39, "unit": "µM"},
      {"measurement": "IC50", "setting": "second compound 1 µM", "result": 5.91, "unit": "µM"},
      {"measurement": "IC50", "setting": "second compound 3.16 µM", "result": 5.18, "unit": "µM"},
      {"measurement": "IC50", "setting": "second compound 10 µM", "result": 3.79, "unit": "µM"},
      {"measurement": "viability, T/C", "setting": "[1]", "result": 103, "unit": "%"},
      {"measurement": "viability, T/C", "setting": "[2]", "result": 110, "unit": "%"},
      {"measurement": "viability, T/C", "setting": "[3]", "result": 108, "unit": "%"},
      {"measurement": "viability, T/C", "setting": "[4]", "result": 105, "unit": "%"},
      {"measurement": "viability, T/C", "setting": "[5]", "result": 94.3, "unit": "%"},
      {"measurement": "viability, T/C", "setting": "[6]", "result": 3.74, "unit": "%"},
      {"measurement": "viability, T/C", "setting": "[7]", "result": 101, "unit": "%"},
      {"measurement": "viability, T/C", "setting": "[8]", "result": 92.6, "unit": "%"},
      {"measurement": "viability, T/C", "setting": "[9]", "result": 112, "unit": "%"},
      {"measurement": "viability, T/C", "setting": "[10]", "result": 94.6, "unit": "%"},
      {"measurement": "viability, T/C", "setting": "[11]", "result": 89.8, "unit": "%"},
      {"measurement": "viability, T/C", "setting": "[12]", "result": 3.81, "unit": "%"},
      {"measurement": "viability, T/C", "setting": "[13]", "result": 105, "unit": "%"},
      {"measurement": "viability, T/C", "setting": "[14]", "result": 96.5, "unit": "%"},
      {"measurement": "viability, T/C", "setting": "[15]", "result": 99.7, "unit": "%"},
      {"measurement": "viability, T/C", "setting": "[16]", "result": 92, "unit": "%"},
      {"measurement": "viability, T/C", "setting": "[17]", "result": 89.3, "unit": "%"},
      {"measurement": "viability, T/C", "setting": "[18]", "result": 4.92, "unit": "%"},
      {"measurement": "viability, T/C", "setting": "[19]", "result": 112, "unit": "%"},
      {"measurement": "viability, T/C", "setting": "[20]", "result": 88.7, "unit": "%"},
      {"measurement": "viability, T/C", "setting": "[21]", "result": 89.1, "unit": "%"},
      {"measurement": "viability, T/C", "setting": "[22]", "result": 100, "unit": "%"},
      {"measurement": "viability, T/C", "setting": "[23]", "result": 97.3, "unit": "%"},
      {"measurement": "viability, T/C", "setting": "[24]", "result": 10.3, "unit": "%"},
      {"measurement": "viability, T/C", "setting": "[25]", "result": 101, "unit": "%"},
      {"measurement": "viability, T/C", "setting": "[26]", "result": 99.4, "unit": "%"},
      {"measurement": "viability, T/C", "setting": "[27]", "result": 105, "unit": "%"},
      {"measurement": "viability, T/C", "setting": "[28]", "result": 85.4, "unit": "%"},
      {"measurement": "viability, T/C", "setting": "[29]", "result": 84.9, "unit": "%"},
      {"measurement": "viability, T/C", "setting": "[30]", "result": 7.85, "unit": "%"},
      {"measurement": "viability, T/C", "setting": "[31]", "result": 88.9, "unit": "%"},
      {"measurement": "viability, T/C", "setting": "[32]", "result": 73.8, "unit": "%"},
      {"measurement": "viability, T/C", "setting": "[33]", "result": 94, "unit": "%"},
      {"measurement": "viability, T/C", "setting": "[34]", "result": 88, "unit": "%"},
      {"measurement": "viability, T/C", "setting": "[35]", "result": 58.4, "unit": "%"},
      {"measurement": "viability, T/C", "setting": "[36]", "result": 5.74, "unit": "%"}
    ]}
  ]
}
